Our source for the DC50 values is US8003649B2 (AstraZeneca AB, priority 2007, dated 2011).

Each structure is given as a SMILES string.

For this experiment, the target named is T1, Androgen Receptor (AR) (Homo sapiens, UniProt P10275, T878A).
T1 construct: cell based immuno-fluorescence assay using the LNCaP prostate epithelial cell line; endogenous in cells; host or cells: LNCaP clone FGC (ATCC CRL-1740)
T1 sequence (P10275 1-920 T878A): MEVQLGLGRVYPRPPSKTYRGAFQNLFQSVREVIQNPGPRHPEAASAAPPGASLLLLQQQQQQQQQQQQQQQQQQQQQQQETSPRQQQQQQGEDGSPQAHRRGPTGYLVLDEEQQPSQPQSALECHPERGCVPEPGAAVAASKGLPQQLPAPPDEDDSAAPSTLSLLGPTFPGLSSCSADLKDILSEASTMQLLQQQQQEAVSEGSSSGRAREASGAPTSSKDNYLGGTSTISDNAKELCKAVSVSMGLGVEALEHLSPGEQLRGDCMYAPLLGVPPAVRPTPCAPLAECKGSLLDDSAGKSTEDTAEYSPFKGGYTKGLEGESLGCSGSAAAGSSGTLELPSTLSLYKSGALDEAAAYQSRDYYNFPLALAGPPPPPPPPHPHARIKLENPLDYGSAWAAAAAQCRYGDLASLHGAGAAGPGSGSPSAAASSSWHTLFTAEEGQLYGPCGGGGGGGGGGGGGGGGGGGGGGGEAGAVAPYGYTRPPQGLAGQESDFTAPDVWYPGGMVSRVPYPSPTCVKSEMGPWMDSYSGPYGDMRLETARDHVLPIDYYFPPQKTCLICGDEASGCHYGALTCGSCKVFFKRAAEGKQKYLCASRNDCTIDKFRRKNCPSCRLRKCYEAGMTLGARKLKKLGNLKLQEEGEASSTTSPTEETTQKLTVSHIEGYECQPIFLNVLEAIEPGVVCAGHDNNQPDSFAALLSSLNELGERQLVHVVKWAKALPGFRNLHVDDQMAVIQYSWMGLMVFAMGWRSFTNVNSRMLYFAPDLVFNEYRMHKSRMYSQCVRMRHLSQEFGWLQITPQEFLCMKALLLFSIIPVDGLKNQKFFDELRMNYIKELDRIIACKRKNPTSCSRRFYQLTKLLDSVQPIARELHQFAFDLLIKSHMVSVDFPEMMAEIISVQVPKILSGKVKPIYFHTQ
Put plainly: LNCaP Androgen Receptor Down-regulation Cell Assay (immunofluorescence end point). The following applies: LNCaP prostate carcinoma cells, compound incubation 20-22 hours, 50% reduction of the AR signal; read-out: Androgen Receptor Down-regulation Assay (a) IC50/μM. Type of experiment: cell-based. The protocol: The ability of compounds to reduce Androgen Receptor (AR) numbers was assessed in a cell based immuno-fluorescence assay using the LNCaP prostate epithelial cell line.
a) LNCaP Androgen Receptor Down-regulation Cell Assay
A 5 ml volume of Growth Medium was added to each flask (as above except that 5% (v/v) charcoal stripped FBS (HyClone Code no. SH30068.03) was included instead of 10% (v/v) FBS). Cells were syringed at least twice using a sterile 18G×1.5″ (1.2×40 mm) broad gauge needle and cell density was measured using a haemocytometer.
Test data reported herein was generated using two different compounds preparation and dosing methods. In method (1) a 10 mM compound stock solution in 100% (v/v) DMSO was serially diluted in 4-fold steps in 100% (v/v) DMSO using a Thermo Scientific Matrix SerialMate. The diluted compounds were then further diluted 1 in 30 in assay media using a Thermo Scientific Matrix PlateMate and a 10 μl aliquot of this dilution was dosed to cells manually using a multi-channel pipette. In method (2) starting with a 10 mM compound stock solution, the Labcyte Echo 550 was used to generate a compound concentration response set diluted in 30 μl of assay media. The Echo 550 is a liquid handler that uses acoustic technology to perform direct microplate-to-microplate transfers of DMSO compound solutions. The system can be programmed to transfer volumes as low as […] in multiple increments between microplates and in so doing generates a serial dilution of compound which is then back-filled to normalise the DMSO concentration across the dilution range. A 10 μl volume of diluted compound is then dosed to cells using a Thermo Scientific Matrix PlateMate.
Plates were incubated overnight at 37° C., 5% CO2. Wells were then dosed with compound prepared by one of the 2 methods above and further incubated for 20-22 hours at 37° C., 5% CO2. […] This fixative solution was removed and cells were washed with 250 μl of PBS/0.05% (v/v) Tween 20 (PBST) using an automated plate washer. This process was then repeated twice more.
Immunostaining was performed at room temperature. Cells were permeabilised by the addition of 35 μl of PBS containing 0.5% Tween 20 and incubated for 1 hour at room temperature. Permeabilisation solution was removed and cells were washed with 250 μl of PBST using an automated plate washer. This process was then repeated twice more. 35 μl of Blocking Solution (PBST containing 3% (w/v) Marvel dried skimmed milk (Nestle)) was added to each well and plates were incubated at room temperature for a minimum of 1 hour. […] Then this primary antibody solution was removed from the wells followed by 3×100 μl PBST washes using a plate washer. […] Henceforth, wherever possible, plates were protected from light exposure. The plates were incubated for 1 hour and then the secondary antibody solution was removed from the wells followed by 3×100 ul PBST washes using a plate washer. Then 50 μl of PBST was added to each well and plates were covered with a black plate seal and stored at 4° C. before being read. Plates were read within six hours of completing the immunostaining.
The Green Fluorescent AR-associated signal in each well was measured using an Acumen Explorer HTS Reader (TTP Labtech Ltd., Cambridge). […] The instrument is a laser-scanning fluorescence microplate cytometer which samples the well at regular intervals and uses threshold algorithms to identify all fluorescent intensities above the solution background without the need to generate and analyse an image. These fluorescent objects can be quantified and provide a measure of the AR levels in cells. Fluorescence dose response data obtained with each compound was exported into a suitable software package (such as Origin) to perform curve fitting analysis. Down-regulation of AR levels was expressed as an IC50 value.
Regarding `Fc1ccc(N2CCN(c3ccc4nnc(C(F)(F)F)n4n3)CC2)c(F)c1` [Example 29, 6-[4-(2,4-difluorophenyl)piperazin-1-yl]-3-(trifluoromethyl)-[1,2,4]triazolo[4,3-b]pyridazine], the DC50 came out at 4.2 µM.

For the compound `FC(F)(F)c1cnc(N2CCCN(c3ccc4nnc(C(F)(F)F)n4n3)CC2)c(Cl)c1` [Example 30, 6-[4-[3-chloro-5-(trifluoromethyl)pyridin-2-yl]-1,4-diazepan-1-yl]-3-(trifluoromethyl)-[1,2,4]triazolo[4,3-b]pyridazine], the DC50 stood at 0.38 µM.

For `COc1nccc(-c2c(-c3ccc(F)cc3)ncn2C2CCN(c3ccc4nnc(C(F)(F)F)n4n3)CC2)n1` [Example 31, 6-[4-[4-(4-fluorophenyl)-5-(2-methoxypyrimidin-4-yl)imidazol-1-yl]piperidin-1-yl]-3-(trifluoromethyl)-[1,2,4]triazolo[4,3-b]pyridazine], the DC50 is 2.1 µM.

Turning to `Cc1ccccc1N1CCN(c2ccc3nnc(C(F)(F)F)n3n2)CC1` [Example 32, 6-[4-(2-methylphenyl)piperazin-1-yl]-3-(trifluoromethyl)-[1,2,4]triazolo[4,3-b]pyridazine], the DC50 was 1.6 µM.

Regarding `FC(F)(F)c1nnc2ccc(N3CCCN(Cc4ccccc4Cl)CC3)nn12` [Example 33, 6-[4-[(2-chlorophenyl)methyl]-1,4-diazepan-1-yl]-3-(trifluoromethyl)-[1,2,4]triazolo[4,3-b]pyridazine], the DC50 worked out at 0.68 µM.

Turning to `CCCC(=O)N1CC2CN(c3ccc4nnc(C(F)(F)F)n4n3)CC2C1` (stereo not shown) [Example 34, 1-[2-[3-(trifluoromethyl)-[1,2,4]triazolo[4,3-b]pyridazin-6-yl]-1,3,3a,4,6,6a-hexahydropyrrolo[3,4-c]pyrrol-5-yl]butan-1-one], the DC50 is 20 µM.

Consider `CC(C)(C)OC(=O)N1[C@@H]2CC[C@H]1CN(c1ccc3nnc(C(F)(F)F)n3n1)C2` [Example 35, tert-butyl (1S,5R)-3-[3-(trifluoromethyl)-[1,2,4]triazolo[4,3-b]pyridazin-6-yl]-3,8-diazabicyclo[3.2.1]octane-8-carboxylate], for which the DC50 worked out at 3 µM.

Take `Cc1cccc(N2CCN(c3ccc4nnc(C(F)(F)F)n4n3)CC2)c1` [Example 36, 6-[4-(3-methylphenyl)piperazin-1-yl]-3-(trifluoromethyl)-[1,2,4]triazolo[4,3-b]pyridazine]: the DC50 was found to be 0.99 µM.

`FC(F)(F)c1nnc2ccc(N3CCN(c4ccccc4Cl)CC3)nn12` [Example 37, 6-[4-(2-chlorophenyl)piperazin-1-yl]-3-(trifluoromethyl)-[1,2,4]triazolo[4,3-b]pyridazine]: the DC50 amounted to 1.4 µM.

On to `O=C1OCc2ccccc2N1C1CCN(c2ccc3nnc(C(F)(F)F)n3n2)CC1` [Example 39, 1-[1-[3-(trifluoromethyl)-[1,2,4]triazolo[4,3-b]pyridazin-6-yl]piperidin-4-yl]-4H-3,1-benzoxazin-2-one], for which the DC50 is 5 µM.

As for `O=C1CCc2ccccc2N1C1CCN(c2ccc3nnc(C(F)(F)F)n3n2)CC1` [Example 40, 1-[1-[3-(trifluoromethyl)-[1,2,4]triazolo[4,3-b]pyridazin-6-yl]piperidin-4-yl]-3,4-dihydroquinolin-2-one], the DC50 was 3.3 µM.

For the compound `N#Cc1cccc(CN2CCN(c3ccc4nnc(C(F)(F)F)n4n3)CC2)c1` [Example 43, 3-[[4-[3-(trifluoromethyl)-[1,2,4]triazolo[4,3-b]pyridazin-6-yl]piperazin-1-yl]methyl]benzonitrile], the DC50 worked out at 1.5 µM.

`Cc1ccc(CN2CCN(c3ccc4nnc(C(F)(F)F)n4n3)CC2)cc1` [Example 47, 6-[4-[(4-methylphenyl)methyl]piperazin-1-yl]-3-(trifluoromethyl)-[1,2,4]triazolo[4,3-b]pyridazine]: the DC50 is 1.5 µM.

Consider `FC(F)(F)c1nnc2ccc(N3CCN(Cc4nc5ccccc5s4)CC3)nn12` [Example 48, 6-[4-(1,3-benzothiazol-2-ylmethyl)piperazin-1-yl]-3-(trifluoromethyl)-[1,2,4]triazolo[4,3-b]pyridazine], for which the DC50 is 1.5 µM.

Regarding `FC(F)(F)c1nnc2ccc(N3CCN(Cc4nc5ccccc5o4)CC3)nn12` [Example 49, 6-[4-(1,3-benzoxazol-2-ylmethyl)piperazin-1-yl]-3-(trifluoromethyl)-[1,2,4]triazolo[4,3-b]pyridazine], the DC50 amounted to 3.2 µM.

On to `FC(F)(F)c1nnc2ccc(N3CCN(Cc4ccnc5ccccc45)CC3)nn12` [Example 50, 4-[[4-[3-(trifluoromethyl)-[1,2,4]triazolo[4,3-b]pyridazin-6-yl]piperazin-1-yl]methyl]quinoline], for which the DC50 was found to be 1.4 µM.

Take `FC(F)(F)c1nnc2ccc(N3CCN(Cc4nccs4)CC3)nn12` [Example 51, 6-[4-(1,3-thiazol-2-ylmethyl)piperazin-1-yl]-3-(trifluoromethyl)-[1,2,4]triazolo[4,3-b]pyridazine]: the DC50 stood at 8.4 µM.

Regarding `FC(F)(F)c1nnc2ccc(N3CCN(Cc4csnn4)CC3)nn12` [Example 53, 6-[4-(thiadiazol-4-ylmethyl)piperazin-1-yl]-3-(trifluoromethyl)-[1,2,4]triazolo[4,3-b]pyridazine], the DC50 was 7.9 µM.

In the case of `Cn1c(CN2CCN(c3ccc4nnc(C(F)(F)F)n4n3)CC2)nc2ccccc21` [Example 54, 6-[4-[(1-methylbenzimidazol-2-yl)methyl]piperazin-1-yl]-3-(trifluoromethyl)-[1,2,4]triazolo[4,3-b]pyridazine], the DC50 stood at 6.7 µM.

For the compound `FC(F)(F)c1nnc2ccc(N3CCN(Cc4cnccn4)CC3)nn12` [Example 55, 6-[4-(pyrazin-2-ylmethyl)piperazin-1-yl]-3-(trifluoromethyl)-[1,2,4]triazolo[4,3-b]pyridazine], the DC50 was 8.8 µM.

For the compound `FC(F)(F)c1nnc2ccc(N3CCN(Cc4ccc5ccccc5n4)CC3)nn12` [Example 56, 2-[[4-[3-(trifluoromethyl)-[1,2,4]triazolo[4,3-b]pyridazin-6-yl]piperazin-1-yl]methyl]quinoline], the DC50 is 2.1 µM.

Take `CS(=O)(=O)c1ccccc1CN1CCN(c2ccc3nnc(C(F)(F)F)n3n2)CC1` [Example 57, 6-[4-[(2-methylsulfonylphenyl)methyl]piperazin-1-yl]-3-(trifluoromethyl)-[1,2,4]triazolo[4,3-b]pyridazine]: the DC50 stood at 4.3 µM.
